The record followed here is patent US20240246969A1, “HETEROCYCLIC DERIVATIVES AS CAMKK2 INHIBITORS” (Bristol-Myers Squibb Company, priority 2021, published 2024).

Data set [1] relates to A549 lung carcinoma cells. Nature of the data set: Cell proliferation assay (CellTiter 96 Aqueous). In kind it is cell-based. Conditions: Homo sapiens, compounds 48 hours, read-out: Cellular IC50 Proliferation. On the procedure: Proliferation was measured using CellTiter 96 Aqueous Non-Radioactive Cell Proliferation Assay Kit (Promega), which determines the number of viable cells in culture based on quantitation of dehydrogenase enzymes, as an indicator of metabolically active cells. A549 lung carcinoma cells were seeded at 2,000 cells/well in a 96-well tissue culture treated plate in DMEM+10% FBS+1× pen/step+1×NEAA and incubated at 37° C. overnight in a CO2 incubator. Cells were treated with compounds for 48 hours. Then viability was measured using CellTiter 96 Aqueous Non-Radioactive Cell Proliferation Assay Kit (Promega). Detection was performed using Biotek Cytation 5 Cell Imaging Multi Mode plate reader.

Another data set addresses CaMKK2 (Homo sapiens, UniProt Q96RR4). Nature of the data set: CaMKK2 binding assay (LanthaScreen TR-FRET). On the procedure:
The ability of test compounds to bind and inhibit the activity of CaMKK2 were determined using a binding assay using LanthaScreent (Thermofisher) detection reagents in a 384-well plate format using the following assay buffer: 50 mM HEPES (pH7.5), 10 mM MgCl2, 1 mM EGTA, and 0.01% Brij-35.
A 10-point serial dilution of inhibitor compound in 0.5% DMSO was added to each well of the plate. The final assay volume in well was 15 uL. […] A ratio was calculated from the 2 readouts and fitted to a 4-parameter fit to determine the binding IC50.
For orientation: TR-FRET usually uses a lanthanide donor and a delayed reading to cut background.

Data set [2] relates to phosphorylation of CaMKK2 substrate AMPK at Thr172 in A549 lung carcinoma cells. Briefly: Cell-based phosphorylation assay (Phospho-AMPK Thr172 HTRF). Conditions: Homo sapiens; for IC50: A549 cells, compounds 4 hours, 3 uM Calcium Ionophore 30 minutes, read-out: Cellular IC50 Phosphorylation; for EC50: A549, read-out: A549 pAMPK MOA EC50. On the procedure:
Cellular CaMKK2 inhibition by compounds was measured by monitoring the phosphorylation of CaMKK2 substrate AMPK at Thr172 in A549 lung carcinoma cells (ATCC) using CISBIO Phospho-AMPK (Thr172) HTRF kit. A549 cells were plated in 96 well plates at 8000 cells/well in DMEM+10% FBS+1× pen/step+1×NEAA and incubated at 37° C. overnight in a CO2 incubator. Cells were then treated with compounds for 4 hours. After cells were stimulated by 3 uM Calcium Ionophore (Sigma) at 37° C. for 30 minutes, cells were washed and then lysed with cell lysis buffer (CisBio) for 30 minutes. […] Plates were incubated overnight and then read using HTRF mode by BMG PHERAstarFS.

Another data set concerns the target 2C9 (Homo sapiens, UniProt P11712). Nature of the data set: CYP450 2C9 inhibition. In kind it is in vitro ADME.
A further data set deals with CEREP. Briefly: CEREP panel. Conditions: @ 10 uM.
A further data set deals with CYP450. Nature of the data set: CYP450 inhibition. Conditions: all isoforms except 2C9. In kind it is in vitro ADME.
For the next data set, the system named is pAMPK in A427. Nature of the data set: A427 pAMPK MOA assay. In kind it is cell-based. Conditions: Homo sapiens, A-427.
A short description of a further data set: PPB, human (h). In kind it is in vitro ADME. Conditions: plasma, second value of (m, h).
A short description of a further data set: PK. Conditions: in vivo; read-out: PK % F.
A short description of the next data set: PPB, mouse (m). In kind it is in vitro ADME. Conditions: plasma, first value of (m, h).
The nature of data set [3]: Microsomes stability, human (h). In kind it is in vitro ADME. Conditions: second value of (m, h).
A short description of data set [4]: Microsomes stability, mouse (m). In kind it is in vitro ADME. Conditions: first value of (m, h).
A further data set has as its target CaMKK1 (Homo sapiens, UniProt Q8N5S9). Nature of the data set: CaMKK1 IC50. In kind it is binding.
A further data set has as its system KSP (72) kinases. Further details: dose or concentration left out as unconfirmed. Conditions: of 72 kinases.

Like-named read-outs stand apart in the source and are kept apart here. A value given as a limit tells only on which side of the number the result lay.

Chain of CaMKK2 (Q96RR4 whole entry): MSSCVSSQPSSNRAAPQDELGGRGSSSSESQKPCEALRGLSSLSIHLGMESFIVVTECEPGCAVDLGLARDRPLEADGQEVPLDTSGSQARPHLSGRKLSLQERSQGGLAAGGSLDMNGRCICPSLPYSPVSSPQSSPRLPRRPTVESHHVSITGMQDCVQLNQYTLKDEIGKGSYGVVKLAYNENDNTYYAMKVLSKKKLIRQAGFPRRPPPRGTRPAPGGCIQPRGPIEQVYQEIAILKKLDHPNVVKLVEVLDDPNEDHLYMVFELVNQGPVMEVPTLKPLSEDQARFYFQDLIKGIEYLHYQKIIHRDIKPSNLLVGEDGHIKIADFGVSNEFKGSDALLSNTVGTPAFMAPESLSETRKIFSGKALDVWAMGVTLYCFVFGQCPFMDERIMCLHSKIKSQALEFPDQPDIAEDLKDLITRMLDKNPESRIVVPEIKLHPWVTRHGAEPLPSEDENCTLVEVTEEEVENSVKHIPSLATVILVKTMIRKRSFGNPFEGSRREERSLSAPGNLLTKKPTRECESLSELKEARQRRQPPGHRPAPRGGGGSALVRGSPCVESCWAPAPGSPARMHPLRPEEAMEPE
Chain of CaMKK1 (Q8N5S9 whole entry, species assumed): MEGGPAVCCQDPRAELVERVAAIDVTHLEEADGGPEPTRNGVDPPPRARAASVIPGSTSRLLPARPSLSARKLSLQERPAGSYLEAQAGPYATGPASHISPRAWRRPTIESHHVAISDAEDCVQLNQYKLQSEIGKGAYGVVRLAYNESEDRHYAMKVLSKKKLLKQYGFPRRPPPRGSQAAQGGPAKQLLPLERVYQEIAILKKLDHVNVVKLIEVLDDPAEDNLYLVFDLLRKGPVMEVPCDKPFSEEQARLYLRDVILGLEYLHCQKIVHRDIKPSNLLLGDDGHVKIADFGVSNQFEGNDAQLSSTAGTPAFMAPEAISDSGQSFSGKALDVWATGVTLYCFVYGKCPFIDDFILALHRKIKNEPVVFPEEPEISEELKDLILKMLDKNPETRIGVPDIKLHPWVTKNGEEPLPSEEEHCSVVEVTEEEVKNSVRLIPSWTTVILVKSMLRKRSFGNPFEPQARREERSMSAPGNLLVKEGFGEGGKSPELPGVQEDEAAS
Chain of 2C9 (P11712 whole entry): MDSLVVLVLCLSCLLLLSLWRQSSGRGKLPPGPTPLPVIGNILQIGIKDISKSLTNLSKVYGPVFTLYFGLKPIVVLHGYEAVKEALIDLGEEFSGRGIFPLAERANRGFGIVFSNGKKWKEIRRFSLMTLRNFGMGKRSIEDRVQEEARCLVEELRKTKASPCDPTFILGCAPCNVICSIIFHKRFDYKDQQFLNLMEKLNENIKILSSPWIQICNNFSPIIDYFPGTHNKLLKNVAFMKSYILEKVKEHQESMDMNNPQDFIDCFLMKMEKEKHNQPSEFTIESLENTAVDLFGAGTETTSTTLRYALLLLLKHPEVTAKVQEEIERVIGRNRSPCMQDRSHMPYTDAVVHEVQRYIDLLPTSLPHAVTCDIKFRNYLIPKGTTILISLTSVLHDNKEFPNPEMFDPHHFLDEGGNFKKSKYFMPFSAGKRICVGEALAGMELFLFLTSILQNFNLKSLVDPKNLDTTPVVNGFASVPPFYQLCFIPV

In the case of `CCNc1cc(-n2ccc3ncc(-c4ccccc4)nc32)ccc1C(=O)O` [Example 5, 2-(Ethylamino)-4-(3-phenylpyrrolo[2,3-b]pyrazin-5-yl)benzoic Acid], the IC50 was more than 10000 nM in [1], less than 100 nM on CaMKK2 and 100 to 1000 nM in data set [2].
As a reminder, the EC50 is the concentration giving half of the maximal effect. By fraction unbound is commonly meant the share of the substance not bound to proteins or other matrix. `CCOc1ccc2c(-c3ccc(C(=O)O)c(C4CCCC4)c3)ncnc2c1` [Example 5.1, 2-cyclopentyl-4-(7-ethoxyquinazolin-4-yl)benzoic acid]: at 2C9, the “CYP450 2C9” value was 2C9 (4 mM). Also, the CEREP entry in the data set with CEREP is recorded as “no inhibition >50%”. Moreover, the CYP450 in the data set with CYP450 was more than 30 µM. This compound also displayed an EC50 with pAMPK in A427 of 74 nM. The same compound showed a fraction unbound in “PPB, human (h)” of 0.01. Moreover, in the data set “PK”, the bioavailability came out at 80%. In “PPB, mouse (m)”, this compound had a fraction unbound of 0.015. Further, in data set [3], the “Microsomes (h) Stability60” value is 100% and the “Microsomes (h) UGT” value is given as 89%. Moreover, in data set [4], the “Microsomes (m) Stability60” value is listed as “Stability60: 96, %” and the “Microsomes (m) UGT” value was determined as 79%.
Take `CCOc1cc(F)c2c(-c3ccc(C(=O)O)c(C4CCCC4)c3)ncnc2c1` [Example 5.2, 2-cyclopentyl-4-(7-ethoxy-5-fluoroquinazolin-4-yl)benzoic acid]: on CaMKK1, the IC50 was determined as 12 nM.
`CCOc1ccc2c(-c3ccc(C(=O)O)c(C4CCCC4)c3)ccnc2c1` [Example 5.3, 2-cyclopentyl-4-(7-ethoxyquinolin-4-yl)benzoic acid]: the IC50 on CaMKK2 (Table 8) worked out at 1.5 nM; against CaMKK1 it was 1.7 nM. The “Kinase Selectivity KSP (72)” value with KSP (72) kinases is on record as 6 of 72 @. Also, the EC50 in the data set with pAMPK in A427 is 30 nM; in data set [2] it was 60 nM. For the same compound, the fraction unbound is less than 0.01 in “PPB, human (h)” and less than 0.01 in “PPB, mouse (m)”. For the same compound, in the data set “PK”, the bioavailability worked out at 58%. The “Microsomes (h) CYP/UGT60” value in data set [3] came out at 67%. Besides, the “Microsomes (m) CYP/UGT60” value in data set [4] was “CYP/UGT60: 66, %”.
In the case of `CCOc1ccc2c(-c3ccc(C(=O)O)c(C(C)C)c3)c(F)cnc2c1` [Example 5.4, 4-(7-ethoxy-3-fluoroquinolin-4-yl)-2-isopropylbenzoic acid], the IC50 at CaMKK2 (Table 8) worked out at 1.1 nM; against CaMKK1, 1.7 nM. For the same compound, in the data set with KSP (72) kinases, the “Kinase Selectivity KSP (72)” value is given as 6 of 72 @. The EC50 in data set [2] turned out to be 79 nM.
On to `O=C(O)c1ccc(-n2ccc3ncc(-c4ccccc4)nc32)cc1NCC1CC1` [Example 6, 2-((Cyclopropylmethyl)amino)-4-(3-phenyl-5H-pyrrolo[2,3-b]pyrazin-5-yl)benzoic Acid], for which the figures for the IC50 (in [1]; at CaMKK2; in data set [2]) were more than 10000 nM, less than 100 nM and 100 to 1000 nM, respectively.
With `O=C(O)c1ccc(-n2ccc3ncc(-c4ccccc4)nc32)cc1NC1CCCC1` [Example 7, 2-(Cyclopentylamino)-4-(3-phenyl-5H-pyrrolo[2,3-b]pyrazin-5-yl)benzoic Acid], the IC50 in [1] is more than 10000 nM; on CaMKK2, less than 100 nM; in [2], 1000 to 10000 nM.
`CCNc1cc(-n2ccc3ncc(-c4ccc(F)cc4F)nc32)ccc1C(=O)O` [Example 9, 4-(3-(2,4-Difluorophenyl)-5H-pyrrolo[2,3-b]pyrazin-5-yl)-2-(ethylamino)benzoic Acid]: the IC50 in [1] was more than 10000 nM; at CaMKK2 it was less than 100 nM; in data set [2], 100 to 1000 nM.
Taken in the same sequence, the figures for `Cn1cc2cc(-c3cnc4ccn(-c5ccc(C(=O)O)c(NCC6CC6)c5)c4n3)ccc2n1` [Example 12, 2-(Cyclopropylmethylamino)-4-(3-(2-methyl-2H-indazol-5-yl)-5H-pyrrolo[2,3-b]pyrazin-5-yl)benzoic Acid] were more than 10000 nM, less than 100 nM and 100 to 1000 nM.
Taken in the same sequence, the figures for `CCNc1cc(-n2ccc3ncc(-c4ccc5nn(C)cc5c4)nc32)ccc1C(=O)O` [Example 13, 2-(Ethylamino)-4-(3-(2-methyl-2H-indazol-5-yl)-5H-pyrrolo[2,3-b]pyrazin-5-yl)benzoic Acid] were more than 10000 nM, less than 100 nM and 100 to 1000 nM.
On to `O=C(O)c1ccc(-n2ccc3ncc(C4CC4)nc32)cc1C1CCCC1` [Example 18, 2-Cyclopentyl-4-(3-cyclopropyl-5H-pyrrolo[2,3-b]pyrazin-5-yl)benzoic Acid], for which the figures for the IC50 (in data set [1]; at CaMKK2; in [2]) were more than 10000 nM, less than 100 nM and 100 to 1000 nM, respectively.
In the case of `N#CNC(=O)c1ccc(-n2ccc3ncc(C4CC4)nc32)cc1C1CCCC1` [Example 19, N-Cyano-2-cyclopentyl-4-(3-cyclopropyl-5H-pyrrolo[2,3-b]pyrazin-5-yl)benzamide], the values for the IC50 (in [1]; on CaMKK2; in data set [2]) were more than 10000 nM, less than 100 nM and 1000 to 10000 nM, respectively.
`c1cc(-c2nn[nH]n2)c(C2CCCC2)cc1-n1ccc2ncc(C3CC3)nc21` [Example 20, 5-(3-cyclopentyl-4-(2H-tetrazol-5-yl)phenyl)-3-cyclopropyl-5H-pyrrolo[2,3-b]pyrazine]: the IC50 was more than 10000 nM in [1], less than 100 nM at CaMKK2 and more than 10000 nM in data set [2].
For `Cc1cc(C)cc(-c2cnc3ccn(-c4ccc(C(=O)O)c(OC5CNC5)c4)c3n2)c1` [Example 24, 2-(azetidin-3-yloxy)-4-(3-(3,5-dimethylphenyl)-5H-pyrrolo[2,3-b]pyrazin-5-yl)benzoic Acid], the IC50 is more than 10000 nM in data set [1], 100 to 1000 nM on CaMKK2 and less than 100 nM in [2].
